Results on 22 compounds are retold here after patent US9173402B2, “Fungicidal alkyl-substituted 2[2-chloro-4-(4-chioro-phenoxy)-phenyl]-1[1,2,4]triazol-1-yl-ethanol compounds” (BASF SE, priority 2011, dated 2015).

The melting point is the temperature, or range, at which the solid turns liquid.

In data set [1] the test system is Septoria tritici. As to the kind of experiment: Preventative control of leaf blotch on wheat (comparative green house test). Type of data set: in vivo. Conditions: % diseased leaf area after 4 weeks, untreated control 90. On the procedure: (§1) The spray solutions were prepared in several steps: The stock solution were prepared: a mixture of acetone and/or dimethylsulfoxide and the wetting agent/emulsifier Wettol, which is based on ethoxylated alkylphenoles, in a relation (volume) solvent-emulsifier of 99 to 1 was added to 25 mg of the compound to give a total of 5 ml. Water was then added to total volume of 100 ml. This stock solution was diluted with the described solvent-emulsifier-water mixture to the given concentration. Leaves of pot-grown wheat seedling were sprayed to run-off with an aqueous suspension of the active compound or their mixture, prepared as described. The plants were allowed to air-dry. At the following day the plants were inoculated with an aqueous spore suspension of Septoria tritici. […] After 4 days the plants were transferred to a chamber with 18-22° C. and a relative humidity close to 70%. After 4 weeks the extent of fungal attack on the leaves was visually assessed as % diseased leaf area.

For data set [2], the system named is Pyricularia oryzae. The data set is classed as cell-based. Conditions: 7 days after inoculation.
For data set [3], the system named is Septoria tritici. As to the kind of experiment: Curative control of leaf blotch on wheat (comparative green house test). The data set is classed as in vivo. Conditions: wheat sprayed seven days after inoculation, % diseased leaf area after 4 weeks, untreated control 90. On the procedure:
as §1, with “were” for “were sprayed to run-off with an aqueous suspension of the active compound or their mixture, prepared as described. The plants were allowed to air-dry. At the following day the plants were”, “70%. Seven days after inoculation the plants were sprayed to run-off with an aqueous suspension of the active compound or their mixture, prepared as described. Then the plants were transferred back to the chamber with 18-22° C. and a relative humidity close to 70%.” for “70%.”

The subject of data set [4] is Alternaria solani. As to the kind of experiment: Activity against early blight, microtiter test. The data set is classed as cell-based. Conditions: 7 days after inoculation; for Growth (%) at 0.000125 pm: comparative microtest Example 5; for Growth (%) at 0.5 pm: comparative microtest Example 2.
Data set [5] relates to Fusarium culmorum. As to the kind of experiment: Control of culm rot on pearl millet (comparative green house test). The data set is classed as in vivo. Conditions: pearl millet sprayed one day before inoculation, % diseased leaf area after 6 days. The procedure: The spray solutions were prepared in several steps:
The stock solution were prepared: a mixture of acetone and/or dimethylsulfoxide and the wetting agent/emulsifier Wettol, which is based on ethoxylated alkylphenoles, in a relation (volume) solvent-emulsifier of 99 to 1 was added to 25 mg of the compound to give a total of 5 ml.
Water was then added to total volume of 100 ml.
This stock solution was diluted with the described solvent-emulsifier-water mixture to the given concentration.
Pot-grown pearl millet seedlings with 2-3 leaves were sprayed to run-off with an aqueous suspension of the compound prepared as described. The plants were allowed to air-dry. At the following day the plants were inoculated with an spore suspension of Fusarium culmorum in a 2% aqueous malt solution. Then the trial plants were immediately transferred to a humid chamber. After 6 days at 23-25° C. and a relative humidity close to 100% the extent of fungal attack on the leaves was visually assessed as % diseased leaf area.

Data set [6] relates to Pyrenophora teres. As to the kind of experiment: Activity against net blotch on barley in the microtiter test. Conditions: comparative microtest Example 1, 7 days after inoculation. The data set is classed as cell-based. The procedure:
The stock solutions were mixed according to the ratio, pipetted onto a micro titer plate (MTP) and diluted with water to the stated concentrations. A spore suspension of Pyrenophora teres in an aqueous biomalt or yeast-bactopeptone-glycerine solution was then added. The plates were placed in a water vapor-saturated chamber at a temperature of 18° C. Using an absorption photometer, the MTPs were measured at 405 nm 7 days after the inoculation.

In data set [7] the test system is Pyricularia oryzae. The data set is classed as in vivo. Conditions: rice sprayed seven days before inoculation, % diseased leaf area after 6 days, untreated control 90.
In data set [8] the test system is Botrytis cinerea. As to the kind of experiment: Activity against grey mold in the microtiterplate test. Type of data set: cell-based. Conditions: 7 days after inoculation; for Growth (%) at 0.5 pm: comparative microtest Example 3.
For data set [9], the system named is Septoria tritici. As to the kind of experiment: Activity against leaf blotch on wheat, microtiter test. The data set is classed as cell-based. Conditions: 32 ppm; 405 nm, 7 days after inoculation; compound-free control = 100%.
Data set [10] deals with Phytophthora infestans. The data set is classed as cell-based. Conditions: 32 ppm; 405 nm, 7 days after inoculation; compound-free control = 100%.
Data set [11] relates to Leptosphaeria nodorum. As to the kind of experiment: Activity against wheat leaf spots, microtiter test. Conditions: 32 ppm; 405 nm, 7 days after inoculation; compound-free control = 100%. The data set is classed as cell-based.
[12] abbreviates: comparative microtest Example 7.
Setting [13] is: comparative microtest Example 4.
Where [14] appears, read: 32 ppm, 405 nm, compound-free control = 100%.

Where “and” joins values, the source holds several entries; their conditions need not be identical. Equal values may be shown once. Read-outs that look alike come from different tables or passages of the source.

Regarding `CC(F)C(O)(Cn1cncn1)c1ccc(Oc2ccc(Cl)cc2)cc1Cl` (stereo not shown), the “Disease (%) at 150 ppm” value in data set [1] is 50%.

Compound `CCC(O)(Cn1cncn1)c1ccc(Oc2ccc(Cl)cc2)cc1Cl` (stereo not shown) [Compound I-1, 2-[2-chloro-4-(4-chlorophenoxy)phenyl]-1-(1,2,4-triazol-1-yl)butan-2-ol] showed a melting point of 140 to 142 °C. In [1], the “Disease (%) at 150 ppm” value worked out at 10%. In addition, the “Growth (%) at 0.5 pm” value in data set [2] (setting [12]) was determined as 15%. The “Disease (%) at 16 ppm” value in [3] is 40%. Besides, the “Growth (%) at 0.000125 pm” value in [4] came to 1%. In addition, in data set [5] (untreated control 90, listed as Table 1, 1), the “Disease (%) at 16 ppm” value is 0% and 1%. Moreover, the “Growth (%) at 8 pm” value in [6] came to 13%. Also, the “Disease (%) at 250 ppm” value in [7] is on record as 20%.

With `CCCC(O)(Cn1cncn1)c1ccc(Oc2ccc(Cl)cc2)cc1Cl` (stereo not shown) [Compound I-2, 2-[2-chloro-4-(4-chloro-phenoxy)-phenyl]-1-[1,2,4]triazol-1-yl-pentan-2-ol], the melting point fell in the range of 132 to 135 °C. The “Growth (%) at 0.5 pm” value in data set [2] (setting [13]) is recorded as 4%. The “Growth (%) at 8 pm” value in data set [6] was found to be 57%.

Compound `CC#CC(O)(Cn1cncn1)c1ccc(Oc2ccc(Cl)cc2)cc1Cl` (stereo not shown) [Compound I-8, 2-[2-chloro-4-(4-chlorophenoxy)phenyl]-1-(1,2,4-triazol-1-yl)pent-3-yn-2-ol] came in with a melting point of 139 °C.

For `OC(Cn1cncn1)(c1ccc(Oc2ccc(Cl)cc2)cc1Cl)C1CC1` (stereo not shown) [Compound I-9], the melting point came out at 110 °C. Moreover, the “Growth (%) at 0.000125 pm” value in [4] is reported as 1%. Further, the “Disease (%) at 16 ppm” value in [5] (untreated control 90) stood at 5%.

Take `C=CC(O)(Cn1cncn1)c1ccc(Oc2ccc(Cl)cc2)cc1Cl` (stereo not shown) [Compound I-10]: the melting point was 119 °C. In addition, the “Growth (%) at 0.5 pm” value in data set [4] worked out at 0%. For the same compound, the “Growth (%) at 0.5 pm” value in [8] worked out at 0%.

On to `C#CCC(O)(Cn1cncn1)c1ccc(Oc2ccc(Cl)cc2)cc1Cl` (stereo not shown) [Compound I-11, 2-[2-chloro-4-(4-chloro-phenoxy)-phenyl]-1-[1,2,4]triazol-1-yl-pent-4-yn-2-ol], for which the “relative growth of the pathogen” value in [2] (setting [14]) is 0%; in data set [9] it was 9%; in data set [4] (setting [14]), 2%; in data set [8] (setting [14]) it was 0%; in [10], 12%; in data set [11], 2%.

Turning to `CC(O)(Cn1cncn1)c1ccc(Oc2ccc(Cl)cc2)cc1Cl` (stereo not shown) [drawing 6], the “Growth (%) at 8 pm” value in [6] is recorded as 62%.

Consider `CCC(Cn1cncn1)(OC)c1ccc(Oc2ccc(Cl)cc2)cc1Cl` (stereo not shown) [drawing 7], for which the “Growth (%) at 8 pm” value in data set [6] turned out to be 39%.

For `CCCC(Cn1cncn1)(OC)c1ccc(Oc2ccc(Cl)cc2)cc1Cl` (stereo not shown) [drawing 9], in data set [6], the “Growth (%) at 8 pm” value was found to be 77%.

In the case of `OC(/C=C/c1ccccc1)(Cn1cncn1)c1ccc(Oc2ccc(Cl)cc2)cc1Cl` (stereo not shown) [drawing 11, reference compound], the “Growth (%) at 0.5 pm” value in [4] was 91%.

`OC(/C=C/c1ccccc1)(Cn1cncn1)c1ccc(Oc2ccc(Cl)cc2)cc1Cl` (stereo not shown) [drawing 13, reference compound]: the “Growth (%) at 0.5 pm” value in [8] is 77%.

For `CCCC(Cn1cncn1)(OC)c1ccc(Oc2ccc(Cl)cc2)cc1Cl` (stereo not shown) [drawing 15, reference compound], in data set [2] (setting [13]), the “Growth (%) at 0.5 pm” value came out at 30%.

With `CC(O)(Cn1cncn1)c1ccc(Oc2ccc(Cl)cc2)cc1Cl` (stereo not shown) [drawing 17, reference compound], the “Growth (%) at 0.000125 pm” value in data set [4] is given as 45%.

Regarding `CCC(Cn1cncn1)(OC)c1ccc(Oc2ccc(Cl)cc2)cc1Cl` (stereo not shown) [drawing 18, reference compound], in data set [4], the “Growth (%) at 0.000125 pm” value was found to be 83%.

On to `CC(O)(Cn1cncn1)c1ccc(Oc2ccc(Cl)cc2)cc1Cl` (stereo not shown) [drawing 21, reference compound], for which the “Growth (%) at 0.5 pm” value in data set [2] (setting [12]) was 82%.

On to `CCC(Cn1cncn1)(OC)c1ccc(Oc2ccc(Cl)cc2)cc1Cl` (stereo not shown) [drawing 22, reference compound], for which, in data set [2] (setting [12]), the “Growth (%) at 0.5 pm” value came out at 47%.

For `OC(Cn1cncn1)c1ccc(Oc2ccc(Cl)cc2)cc1Cl` (stereo not shown) [drawing 24], in data set [1], the “Disease (%) at 150 ppm” value amounted to 60%.

In the case of `OC(Cn1cncn1)c1ccc(Oc2ccc(Cl)cc2)cc1Cl` (stereo not shown) [drawing 27, reference compound], in data set [7], the “Disease (%) at 250 ppm” value worked out at 60%.

Consider `CC(O)(Cn1cncn1)c1ccc(Oc2ccc(Cl)cc2)cc1Cl` (stereo not shown) [drawing 29, reference compound], for which, in [5] (untreated control 90), the “Disease (%) at 16 ppm” value was 25%.

As for `OC(Cn1cncn1)c1ccc(Oc2ccc(Cl)cc2)cc1Cl` (stereo not shown) [drawing 32, reference compound], the “Disease (%) at 16 ppm” value in data set [5] (untreated control 90) was 30%.

On to `CCC(Cn1cncn1)(OC)c1ccc(Oc2ccc(Cl)cc2)cc1Cl` (stereo not shown) [drawing 34, reference compound], for which, in data set [3], the “Disease (%) at 16 ppm” value stood at 70%.
